These results are taken from ChEMBL document CHEMBL1145433, “Nuttingins A-F and malonganenones D-H, tetraprenylated alkaloids from the Tanzanian gorgonian Euplexaura nuttingi” (2007).

The source made the active and inactive calls. No cut-off for these calls is given here.

One assay relates to UT7. Nature of the assay: Growth inhibition of human UT7 cells by MTT assay. Format: functional, cell-based.
Conditions: not given
For `C/C(=C\Cn1cnc2c1C(=O)N(C)CN2C)CC/C=C(\C)CCC/C(C)=C/C(=O)CC(C)C` [NUTTINGIN D], the Activity result is “Dose-dependent effect”.

For `C/C(=C\CC/C(C)=C/Cn1cnc2c1C(=O)N(C)CN2C)CC/C=C(\C)CC(=O)CC(C)C` [NUTTINGIN C], the Activity entry was “Dose-dependent effect”.

Another assay relates to K562. Nature of the assay: Growth inhibition of human K562 cells by MTT assay. Format: functional, cell-based.
Conditions: not given
For the molecule `C/C(=C\Cn1cnc2c1C(=O)N(C)CN2C)CC/C=C(\C)CCC/C(C)=C/C(=O)CC(C)C` [NUTTINGIN D], the Activity entry is “Dose-dependent effect”.

Take `C/C(=C\CC/C(C)=C/Cn1cnc2c1C(=O)N(C)CN2C)CC/C=C(\C)CC(=O)CC(C)C` [NUTTINGIN C]: the Activity entry is “Dose-dependent effect”.

In a further assay the test system is K562. Nature of the assay: Growth inhibition of human K562 cells at 0.4 ug/mL after 48 hrs by MTT assay. The assay is classed as functional. The note with it: K562, 48 h. On the technique in general: Formazan colour is commonly taken as a measure of viable cells.
As a reminder, the inhibition is the percentage by which the read-out fell short of the control. Low readings indicate little suppression, high ones strong suppression. In turn, `C/C(=C\Cn1cnc2c1C(=O)N(C)CN2C)CC/C=C(\C)CCC/C(C)=C/C(=O)CC(C)C` [NUTTINGIN D] came in with an inhibition at 0.4 µg/mL of 30%.

In turn, `C/C(=C\CC/C(C)=C/Cn1cnc2c1C(=O)N(C)CN2C)CC/C=C(\C)CC(=O)CC(C)C` [NUTTINGIN C] gave an inhibition at 0.4 µg/mL of 30%.

For the molecule `C/C(=C/C(=O)CC(C)C)CCC/C(C)=C/CC/C(C)=C/Cn1cnc2c1C(=O)N(C)CN2C` [NUTTIGIN E], testing at 0.4 µg/mL gave an inhibition of 30%.

Another assay has as its system UT7. Nature of the assay: Growth inhibition of human UT7 cells at 0.4 ug/mL after 48 hrs by MTT assay. As to conditions: UT7, 48 h. The assay is classed as functional.
`C/C(=C\Cn1cnc2c1C(=O)N(C)CN2C)CC/C=C(\C)CCC/C(C)=C/C(=O)CC(C)C` [NUTTINGIN D] yielded an inhibition at 0.4 µg/mL of 50%.

The molecule `C/C(=C\CC/C(C)=C/Cn1cnc2c1C(=O)N(C)CN2C)CC/C=C(\C)CC(=O)CC(C)C` [NUTTINGIN C] registered an inhibition at 0.4 µg/mL of 50%.

For the molecule `C/C(=C/C(=O)CC(C)C)CCC/C(C)=C/CC/C(C)=C/Cn1cnc2c1C(=O)N(C)CN2C` [NUTTIGIN E], the inhibition at 0.4 µg/mL was found to be 50%.

Another assay concerns HEK293. The experiment in a line: Induction of apoptosis in 293 cells at 1.25 ug/mL. Format: functional, cell-based. The note with it: Homo sapiens.
As for `C/C(=C\CC/C(C)=C/Cn1cnc2c1c(=O)n(C)c(=O)n2C)CC/C=C(\C)CC(=O)CC(C)C`, the outcome was Active.

With `C/C(=C\Cn1cnc2c1C(=O)N(C)CN2C)CC/C=C(\C)CCC/C(C)=C/C(=O)CC(C)C` [NUTTINGIN D], the outcome was Active.

Consider `C/C(=C\CC/C(C)=C/Cn1cnc2c1C(=O)N(C)CN2C)CC/C=C(\C)CC(=O)CC(C)C` [NUTTINGIN C], for which the outcome was Active.

Consider `C/C(=C/C(=O)CC(C)C)CCC/C(C)=C/CC/C(C)=C/Cn1cnc2c1C(=O)N(C)CN2C` [NUTTIGIN E], for which the outcome was Active.

Consider `CNC(=O)c1c(N(C)C=O)ncn1C/C=C(\C)CC/C=C(\C)CC/C=C(\C)CC(=O)CC(C)C`, for which the outcome was Active.

For `C/C(=C\CNC=O)CC/C=C(\C)CCC/C(C)=C/C(=O)CC(C)C`, the outcome was Active.

`C/C(=C\Cn1cnc2c1c(=O)ncn2C)CC/C=C(\C)CCC/C(C)=C/C(=O)CC(C)C`: the outcome was Active.

Take `C/C(=C\CC/C(C)=C/Cn1cnc2c1c(=O)ncn2C)CC/C=C(\C)CC(=O)CC(C)C`: the outcome was Active.

As to `CNC(=O)c1c(N(C)C=O)ncn1C/C=C(\C)CC/C=C(\C)CCC/C(C)=C/C(=O)CC(C)C`, the outcome was Active.

Regarding `C/C(=C/C(=O)CC(C)C)CCC/C(C)=C/CC/C(C)=C/Cn1cnc2c1c(=O)n(C)c(=O)n2C`, the result was Active.
